Reference: the NIST ThermoML archive (doi:10.1021/je900048r)

Test: xn = mol fraction of the nth substance listed
Conditions: Liquid, Other PVT measurement

CCCCn1cc[n+](C)c1.F[B-](F)(F)F [1-butyl-3-methylimidazolium tetrafluoroborate] + CC#N
mass density [kg/m3]
Conditions	x1 = 0.1	x1 = 0.2	x1 = 0.3	x1 = 0.4	x1 = 0.5	x1 = 0.6	x1 = 0.6999	x1 = 0.7998	x1 = 0.8993	x1 = 1
313.15 K, 200 kPa	893	980	1040	1077	1105	1127	1146	1161	1175	1185
313.15 K, 600 kPa	894	981	1041	1078	1106	1127	1147	1162	1175	1186
313.15 K, 1000 kPa	895	982	1041	1078	1106	1128	1147	1162	1175	1186
313.15 K, 1400 kPa	895	982	1041	1079	1106	1128	1147	1162	1175	1186
313.15 K, 1800 kPa	895	983	1041	1079	1106	1128	1147	1163	1176	1187
313.15 K, 2000 kPa	896	983	1042	1079	1107	1129	1148	1163	1176	1187
353.15 K, 200 kPa	857	947	1008	1047	1076	1098	1118	1134	1148	1159
353.15 K, 600 kPa	858	948	1009	1047	1076	1099	1119	1134	1148	1160
353.15 K, 1000 kPa	858	948	1009	1048	1077	1099	1119	1134	1148	1160
353.15 K, 1400 kPa	858	948	1010	1048	1077	1100	1119	1134	1149	1160
353.15 K, 1800 kPa	859	949	1010	1049	1077	1100	1120	1134	1149	1161
353.15 K, 2000 kPa	859	949	1010	1049	1078	1100	1120	1135	1149	1161
393.15 K, 600 kPa	820	914	978	1018	1048	1072	1092	1108	1123	1135
393.15 K, 1000 kPa	821	915	978	1018	1048	1072	1092	1108	1123	1135
393.15 K, 1400 kPa	821	915	979	1019	1048	1073	1092	1108	1123	1135
393.15 K, 1800 kPa	822	915	979	1019	1049	1073	1093	1108	1123	1136
393.15 K, 2000 kPa	822	916	979	1019	1049	1073	1093	1108	1124	1136
433.15 K, 1000 kPa	781	881	947	989	1021	1045	1066	1082	1098	1112
433.15 K, 1400 kPa	782	882	948	990	1021	1045	1066	1082	1098	1112
433.15 K, 1800 kPa	783	882	948	990	1021	1046	1067	1083	1098	1113
433.15 K, 2000 kPa	783	882	949	990	1021	1046	1067	1083	1099	1113
473.15 K, 1800 kPa	741	847	917	960	993	1018	1040	1057	1072	1086
473.15 K, 2000 kPa	742	848	917	960	993	1019	1041	1057	1073	1087

CCCCn1cc[n+](C)c1.F[B-](F)(F)F [1-butyl-3-methylimidazolium tetrafluoroborate] + CCO
mass density [kg/m3]
Conditions	x1 = 0.2	x1 = 0.3	x1 = 0.3999	x1 = 0.4998	x1 = 0.6	x1 = 0.6996	x1 = 0.8001	x1 = 0.8998	x1 = 1
313.15 K, 200 kPa	965	1022	1071	1098	1121	1142	1158	1173	1185
313.15 K, 600 kPa	966	1023	1072	1098	1122	1142	1158	1174	1186
313.15 K, 1000 kPa	966	1023	1072	1098	1122	1143	1159	1174	1186
313.15 K, 1400 kPa	966	1024	1072	1099	1123	1144	1159	1174	1186
313.15 K, 1800 kPa	967	1024	1073	1099	1123	1144	1160	1174	1187
313.15 K, 2000 kPa	967	1024	1073	1102	1123	1144	1160	1175	1187
353.15 K, 200 kPa	935	993	1042	1070	1094	1116	1131	1147	1159
353.15 K, 600 kPa	935	993	1042	1071	1094	1116	1132	1147	1160
353.15 K, 1000 kPa	935	993	1043	1071	1095	1116	1132	1147	1160
353.15 K, 1400 kPa	936	994	1043	1071	1095	1116	1133	1147	1160
353.15 K, 1800 kPa	936	994	1043	1071	1095	1116	1133	1148	1161
353.15 K, 2000 kPa	937	994	1043	1072	1096	1117	1133	1148	1161
393.15 K, 600 kPa	904	964	1014	1042	1067	1090	1106	1122	1135
393.15 K, 1000 kPa	904	965	1014	1043	1068	1090	1106	1122	1135
393.15 K, 1400 kPa	905	965	1015	1043	1068	1090	1107	1122	1135
393.15 K, 1800 kPa	905	965	1015	1044	1069	1091	1107	1123	1136
393.15 K, 2000 kPa	905	966	1015	1044	1069	1091	1108	1123	1136
433.15 K, 1400 kPa	871	935	987	1016	1041	1065	1081	1097	1112
433.15 K, 1800 kPa	872	935	987	1017	1042	1066	1082	1097	1113
433.15 K, 2000 kPa	872	935	987	1017	1042	1066	1082	1098	1113
